Experimental data: patent US20220071952A1, “METHODS OF TREATING AND PREVENTING HEPATOTOXICITY” (Natreon, Inc., priority 2020, published 2022)
Where “and” joins values, the source holds several entries; their conditions need not be identical. Equal values may be shown once.

Legend:
[1] = system: paracetamol-induced hepatotoxicity in mice; experiment: Paracetamol-induced hepatotoxicity in mice, serum biochemical parameters (Example I); assay type: in vivo, Swiss albino mice; conditions: for ALP / ALT / AST / Total Bilirubin / Total Protein / Triglyceride: 10 mg/kg p.o. + paracetamol 200 mg/kg p.o., 7 days, serum, mean ± SD, n=6
Description: 3-OH-DBP (Natreon, Inc., New Brunswick, N.J., synthesized to 99% purity w/w) was in the form of a white free flowing powder. 3,8-(OH)2-DBP (Natreon, Inc., New Brunswick, N.J., synthesized to 99% purity w/w) was in the form of a pale green free flowing powder. Paracetamol (acetaminophen) was in the form of a white solid tablet.
Swiss albino mice of both sexes, weighing approximately 25-30 g, were obtained from National Research Institute of Ayurveda for Drug Development (Govt. of India), Kolkata, and were housed in polypropylene cages at 22±3° C., relative air humidity of 45 to 55%, with 12.00 hr light and dark cycle (lighting on from 6:00 AM to 6:00 PM). Mice were provided standard pellet chow (carbohydrate 65.5%, protein 17.6%, fat 6.6%) and distilled water ad libitum. The mice were acclimatized for one week in the above laboratory conditions, before being used in this experiment. All experiments were conducted between 10.00 hr and 14.00 hr. Principles of laboratory animal care (NIH publication no. 85-23, revised 1985) were followed.
The animals were randomly assigned into four groups of six animals each, as set out in Table 1. […] After 1 hr of last treatment, blood samples were collected and serum was separated.

[2] = Body weight, food intake and water intake during alcohol-induced hepatotoxicity study (Example III); assay type: in vivo, Swiss Albino mice; conditions: for change in body weight / change in food intake / change in water intake: 10 mg/kg p.o. + alcohol, 15 days; for body weight / food intake / water intake: 10 mg/kg p.o. + alcohol 5 g/kg p.o. twice daily, mean ± SD
Protocol: Swiss Albino male and female mice weighing approximately 30±5 g, 2 month old mice were obtained from National Research Institute of Ayurveda for Drug Development (Govt. of India), Kolkata, and were housed in polypropylene cages at 22±3° C., relative air humidity of 45 to 55%, with 12.00 hr light & dark cycle (lighting on from 6:00 AM to 6:00 PM). Mice were provided a standard pellet chow diet (carbohydrate 65.5%, protein 17.6%, fat 6.6%) and distilled water ad libitum. The mice were acclimatized for one week in the laboratory conditions, before being used in the experiment. All experiments were conducted between 10.00 hr and 14.00 hr. Principles of laboratory animals care (NIH publication no. 85-23, revised 1985) were followed.
Vehicle control animals (“Con Veh”) were administered 0.3% CMC orally for 15 days.
Animals receiving ethanol (“Alc+0.3 CMC”, “3-OH-DBP+Alc”, “3,8-(OH)2-DBP+Alc”) were administered ethanol in 0.3% CMC orally as discussed above.
Results were expressed in terms of mean±SD (n=8). The data were subjected to one way ANOVA followed by Tukey's test using GraphPad Prism 4.0 software to establish statistical significance (*p<0.05, **p<0.01, ***p<0.001 vs. vehicle control; # p<0.05, ## p<0.01, ### p<0.001 vs. animals administered ethanol only).

[3] = system: paracetamol-induced hepatotoxicity in mice; experiment: Synergistic hepatoprotective activity of DBPs against paracetamol-induced hepatotoxicity (Example IV); assay type: in vivo; conditions: for ACP / ALP / ALT / AST / Total Protein: paracetamol 200 mg/kg, mean ± SEM, n=4
[4] = female mice, doses 3-OH-DBP 2, 3,8-(OH)2-DBP 10, 1:5 combination 12 mg/kg b.w.
[5] = female mice, doses 3-OH-DBP 10, 3,8-(OH)2-DBP 50, 1:5 combination 60 mg/kg b.w.
[6] = male mice, doses 3-OH-DBP 2, 3,8-(OH)2-DBP 10, 1:5 combination 12 mg/kg b.w.
[7] = male mice, doses 3-OH-DBP 10, 3,8-(OH)2-DBP 50, 1:5 combination 60 mg/kg b.w.

Structure (SMILES): O=c1oc2cc(O)ccc2c2ccc(O)cc12 [3,8-(OH)2-DBP, 3,8-dihydroxy-dibenzo-alpha-pyrone]
- effect on paracetamol-induced hepatotoxicity (ALT, AST, triglyceride, bilirubin vs paracetamol group) ([1]; 10 mg/kg body weight, male (Table 2) and female (Table 3) mice): significantly attenuated and reversed the paracetamol-induced hepatotoxicity
- hepatoprotective activity against paracetamol, comparison of both test compounds ([1]; female mice, 10 mg/kg orally for 7 days, paracetamol 200 mg/kg): almost the same hepatoprotective activity
- ALP ([1]; female mice): 105.1 ± 12.40 IU/L
- ALT ([1]; female mice): 76.91 ± 16.87 IU/L
- AST ([1]; female mice): 51.76 IU/L and 51.76 ± 3.72 IU/L
- Total Bilirubin ([1]; female mice): 0.58 ± 0.30 mg/dL
- Total Protein ([1]; female mice): 5.41 ± 0.49 mg/dL
- Triglyceride ([1]; female mice): 45.13 ± 0.80 mg/dL
- ALP ([1]; male mice): 107.1 ± 19.11 IU/L
- ALT ([1]; male mice): 95.97 ± 29.52 IU/L
- AST ([1]; male mice): 85.75 ± 11.59 IU/L
- Total Bilirubin ([1]; male mice): 0.48 ± 0.14 mg/dL
- Total Protein ([1]; male mice): 5530 ± 230 mg/dL
- Triglyceride ([1]; male mice): 57.06 ± 0.90 mg/dL
- change in body weight ([2]; female mice): No significant change
- change in food intake ([2]; female mice): No significant change
- change in water intake ([2]; female mice): No significant change
- body weight ([2]; female mice, Day 0): 25.17 ± 2.32 gm
- food intake ([2]; female mice, Day 0): 8.52 ± 0.30 gm
- water intake ([2]; female mice, Day 0): 4 ± 0.28 mL
- body weight ([2]; female mice, Day 5): 23.5 ± 3.02 gm
- food intake ([2]; female mice, Day 5): 8.78 ± 1.02 gm
- water intake ([2]; female mice, Day 5): 4.01 ± 0.26 mL
- body weight ([2]; female mice, Day 10): 23.67 ± 3.07 gm
- food intake ([2]; female mice, Day 10): 16.44 ± 0.47 gm
- water intake ([2]; female mice, Day 10): 2.32 ± 0.46 mL
- body weight ([2]; female mice, Day 15): 22.83 ± 2.78 gm
- food intake ([2]; female mice, Day 15): 16.12 ± 0.66 gm
- water intake ([2]; female mice, Day 15): 2.15 ± 0.44 mL
- change in body weight ([2]; male mice): No significant change
- change in food intake ([2]; male mice): No significant change
- change in water intake ([2]; male mice): No significant change
- body weight ([2]; male mice, Day 0): 29.17 ± 2.79 gm
- food intake ([2]; male mice, Day 0): 17.01 ± 0.75 gm
- water intake ([2]; male mice, Day 0): 4.92 ± 0.45 mL
- body weight ([2]; male mice, Day 5): 25 ± 3.29 gm
- food intake ([2]; male mice, Day 5): 17.18 ± 0.85 gm
- water intake ([2]; male mice, Day 5): 5.07 ± 0.61 mL
- body weight ([2]; male mice, Day 10): 25.67 ± 2.66 gm
- food intake ([2]; male mice, Day 10): 17.21 ± 1.11 gm
- water intake ([2]; male mice, Day 10): 2.32 ± 0.31 mL
- body weight ([2]; male mice, Day 15): 24.8 ± 2.93 gm
- food intake ([2]; male mice, Day 15): 17.23 ± 1.16 gm
- water intake ([2]; male mice, Day 15): 2.27 ± 0.33 mL
- ACP, difference in values from paracetamol treated mice [3, 4]: B = (a-c = 4) U/L
- ALP, difference in values from paracetamol treated mice [3, 4]: D = (a-c = 53) IU/L
- ALT, difference in values from paracetamol treated mice [3, 4]: B = (a-c = 39) IU/L
- AST, difference in values from paracetamol treated mice [3, 4]: B = (a-c = 64) IU/L
- ACP, difference in values from paracetamol treated mice [3, 5]: E = (a-f = 5) U/L
- ALP, difference in values from paracetamol treated mice [3, 5]: E = (a-f = 48) IU/L
- ALT, difference in values from paracetamol treated mice [3, 5]: E = (a-f = 43) IU/L
- AST, difference in values from paracetamol treated mice [3, 5]: E = (a-f = 77) IU/L
- ACP [3, 4]: 12 ± 0.63^##(c) U/L
- ALP [3, 4]: 45 ± 7.9^##(c) IU/L
- ALT [3, 4]: 47 ± 12 (c) IU/L
- AST [3, 4]: 79 ± 11*,^#(c) IU/L
- Total Protein [3, 4]: 6.7 ± 0.02 g/dL
- ACP [3, 5]: 11 ± 0.41^#(f) U/L
- ALP [3, 5]: 50 ± 11^#(f)^ IU/L
- ALT [3, 5]: 43 ± 2.5^##(f) IU/L
- AST [3, 5]: 66 ± 11*,^#(f) IU/L
- Total Protein [3, 5]: 5.8 ± 0.30 g/dL
- Relative liver weight ([3]; male and female mice, paracetamol study of Example IV): significantly (p<0.01) increased
- ACP, difference in values from paracetamol treated mice [3, 6]: B = (a-c = 6.13) U/L
- ALP, difference in values from paracetamol treated mice [3, 6]: B = (a-c = 50.87) IU/L
- ALT, difference in values from paracetamol treated mice [3, 6]: B = (a-c = 18.35) IU/L
- AST, difference in values from paracetamol treated mice [3, 6]: B = (a-c = 33.82) IU/L
- ACP, difference in values from paracetamol treated mice [3, 7]: E = (a-f = 10.56) U/L
- ALP, difference in values from paracetamol treated mice [3, 7]: E = (a-f = 48.85) IU/L
- ALT, difference in values from paracetamol treated mice [3, 7]: E = (a-f = 20.56) IU/L
- AST, difference in values from paracetamol treated mice [3, 7]: E = (a-f = 46.36) IU/L
- ACP [3, 6]: 12.06 ± 0.43 (c) U/L
- ALP [3, 6]: 77.63 ± 6.81 (c) IU/L
- ALT [3, 6]: 49.28 ± 7.23 (c) IU/L
- AST [3, 6]: 68.23 ± 4.96^###(c) IU/L
- Total Protein [3, 6]: 6.97 ± 0.12 g/dL
- ACP [3, 7]: 7.63 ± 0.45^##(f) ^ U/L
- ALP [3, 7]: 79.67 ± 10.18^###(f) IU/L
- ALT [3, 7]: 47.07 ± 6.69^#(f) ^ IU/L
- AST [3, 7]: 55.69 ± 5.37^###(f) IU/L
- Total Protein [3, 7]: 6.98 ± 0.12 g/dL
- hepatoprotective activity (conclusion, Tables 15 and 16) ([3]; paracetamol-induced hepatotoxicity, male and female mice): hepatoprotective activity in a dose dependent manner
